Experimental data: patent US20250288558A1, “THERAPEUTIC FOR SPINAL CORD INJURY TO INDUCE HYPOTHERMIA” (The Trustees of Indiana University, priority 2024, published 2025)
Counter-ions that a name gives are not always drawn. Like-named read-outs stand apart in the source and are kept apart here.

Key:
[1] = system: mice with moderate T9 contusive SCI; details: n=10; for foot fall rate: Dex+SCI
Text: In addition to Rotarod test, Grid walk test further was ran twice at […] post-injury to assess hindlimb movements involved in sensorimotor functions, such as precise stepping, coordination and accurate placement of the paw. A one-foot drop error was counted when the hindlimb paw was entirely dropping through the grid with all toes and heel below the grid surface.
(§1) Grid-walking: The grid-walking test assesses the ability of a mouse to place its paws on the rungs of a grid accurately during spontaneous exploration. An elevated metal rectangle grid (12×36 inch2 with each grid cell 0.5×0.5 inch2) and 16 inches above a table top was used for the hindlimb drop error test. Each mouse was placed in the center of the grid for 3 min. A one-foot drop error was counted when the hindlimb paw was entirely dropping through the grid with all toes and heel below the grid surface. The total number of foot drop errors and total number of steps were recorded by video. Two observers who were blinded to the experiment analyzed the video and counted the steps. The grid-walking test was performed on the day before surgery and on days 21 and 35 post-SCI. Only those mice with consistent plantar stepping (BMS≥5) were tested on the grid.

mouse with a SCI [2] = system: mouse with a SCI
Protocol: Referring to FIGS. 5A-5C, to evaluate the coordination of bladder and external urethral sphincter, urodynamic recordings were performed. Bladder cystometrograph (CMG) and external urethral sphincter electromyography (EMG) were co-recorded. The peak intravesical pressure in CMG indicates the contraction of bladder detrusor. The bursting signal in external urethral sphincter EMG is a sign of relaxation of external urethral sphincter. The coordination of bladder and external urethral sphincter was reflected by the synchronization of two signals. […] In chronically injured mice, restoration of reflex external urethral sphincter relaxation correlates with the re-appearance of external urethral sphincter bursting. Therefore, external urethral sphincter bursting is a good indicator of external urethral sphincter functional recovery after SCI in mice.

GFAP = details: epicenter
Protocol: Immunofluorescent Staining: Immunofluorescent staining was carried out according to our previous reports. In brief, sections on the slides were rinsed in PBS 3 times (5 minutes each) and incubated in blocking buffer (0.1% Triton X-100, 1% bovine serum albumin, and 5% normal serum in PBS) for 1 hour at room temperature. Then, primary antibodies were added to blocking buffer and incubated with sections overnight at 4° C. After 3 washes with PBS (5 minutes each), sections were incubated with the secondary antibody for 1 hour at room temperature and then treated with 4′,6-Diamidino-2-phenylindole (DAPI) for 2 minutes. Finally, sections were washed 3 times with PBS (5 minutes each), dried, and mounted using Fluoromount G (Southern Biotech, Birmingham, AL, USA). Primary antibodies and their final concentrations were as follows: NeuN antibody (1:500, chicken, Abcam, ab134014), SMI31 antibody (1:1000, mouse, Millipore, NE1022), and GFAP antibody (1:1000, mouse, Sigma, G3893).

[3] = system: mice with contusive T9 moderate SCI (IH); details: Dex 100 μg/kg one hour post-trauma, IH model, ambient 24.5° C.
Protocol: Contusive spinal cord injury: Adult female C57BL/6 mice (8 weeks old, 18-22 g) were purchased from The Jackson Laboratory (Bar Harbor, ME). Depending on different injury model, mice were either randomly divided into three groups: sham, SCI+heating pad, and SCI+Dex for LISA injury model, or were randomly divided into four groups: sham, SCI+heating pad, SCI+Dex, and SCI+Conventional hypothermia for Infinite Horizons (IH) model. […] All animal care, handling, and surgery were performed in accordance with the Guide for the Care and Use of Laboratory Animals (National Research Council) and the Guidelines of the Institutional Animal Care and Use Committee of Indiana University School of Medicine. Spinal cord contusion was made at the thoracic (T9) vertebral level. After avertin anesthesia, animals will be placed on a thermometer-controlled heating pad for the duration of recovery (except Dex and conventional hypothermia treated group). For LISA injury model, C57/6J mice were anesthetized. […] The T9 contusion injury was performed using a LISA impactor, where the injury level was determined using a laser sensor. After injury confirmation, the surgical area is sutured, the animal is hydrated and monitored for post-operative care, including analgesia and bladder expression. […]

[4] = system: mice with contusive T9 moderate SCI (IH); details: IH model
Text: Rotarod test: Rotorod is used to assay the hindlimb function of the animal. The animal was put on a rotated device. It consisted of a metal frame with a motorized, rotating assembly of rods. Animals were allowed to remain stationary. […] If animal skilled, it can remain on the device at this speed for extra 30 sec until the 2-min test period elapsed. Normally, a trial was ended if the animal fell completely off the rod or gripped the rod and spun around without attempting to walk on the rod. Mean duration on the rod was recorded.

[5] = system: mice with contusive T9 moderate SCI (IH); details: 6 wk, SCI+Dex, n=10
Protocol: as §1

mouse with a SCI [6] = details: metabolic cage, n=5
mouse with a SCI [7] = details: 4 hours after 1 ml saline IP injection, n=5
[8] = system: c-fos positive neurons in raphe nuclei; details: during urodynamic recording
Text: During the urodynamic recording, brain stem neurons controlling the urination within the spared supraspinal circuitry were activated and expressed c-fos.

In the case of Cc1cccc([C@H](C)c2cnc[nH]2)c1C [Dex, dexmedetomidine hydrochloride], the foot fall rate ([1]; 4 weeks post-injury) was 17.3±5.1%, the foot fall rate ([1]; 6 weeks post-injury) was 12.9±3.6% and the “recovery of sensorimotor functions (Grid Walk)” value ([1]; FIG. 3D, female) was “better recovery of sensorimotor functions”. For the same compound, the voiding efficiency (mouse with a SCI [2]; n=5, p<0.05 vs. SCI group) was 15.9±6.6%, the bladder capacity (mouse with a SCI [2]; p<0.05 vs. SCI group) was 0.56 ± 0.31 mL and the “synchronization of bladder CMG and external urethral sphincter EMG signals” value (mouse with a SCI [2]; vs. SCI) was “enhanced the synchronization”. The “intensity of GFAP-positive signal compared to none-treatment SCI mice” value (GFAP) was “decreased significantly”, the “duration of moderate hypothermia” value [3] was 16 h and the Rotarod duration time ([4]; 6 wk, SCI+Dex, n=10) was 35.3±1.84. For the same compound, the “Rotarod average increase rate vs. none-treatment SCI mice” value [4] was 55%, the “Grid walk foot fall” value [5] was 12.9±3.6 and the urination volume (mouse with a SCI [6]; 24 hours) was 0.48 ± 0.22 mL. The residual urine volume (mouse with a SCI [6]) was 0.4 ± 0.22 mL, the frequency of urination (mouse with a SCI [7]) was 6±0.82 and the urine volume (mouse with a SCI [7]) was 0.3 ± 0.04 mL. The “c-fos positive neurons in raphe nuclei vs. SCI group” value [8] was “Significantly more c-fos positive neurons”.
